Source: patent publication US5407824A, “Recombinant coryneform bacterium for producing L-tryptophan” (Kyowa Hakko Kogyo Co., Ltd., priority 1989, dated 1995)

Legend:
Format in all cases: biochemical
[1] = test system: 3-deoxy-D-arabino-heptulosonate-7-phosphate synthase (DS) of the transformant carrying pCGDS1; assay: DS activity, inhibition by phenylalanine and tyrosine, transformant carrying pCGDS1; details: Corynebacterium glutamicum ATCC 13032 carrying pCGDS1 (DS gene from K38)
Procedure: DS activities of Corynebacterium glutamicum ATCC 13032 and the transformant carrying pCGDS1 were determined according to the method of P. R. Sprinavasan, D. B. Sprinson, et al. [J. Biol. Chem., 234, 716 (1959)].

[2] = target: T1, anthranilate phosphoribosyl transferase (PRT) encoded by pCtrp57 (Corynebacterium glutamicum, UniProt P06559); assay: PRT activity, inhibition by tryptophan, TA108 strain carrying pCtrp57; details: read-out: Tryptophan concentration effective for 50% inhibition of the PRT activity
T1 construct: cell enzyme activity
Procedure: (§1) TA108 strain carrying pCtrp1 was cultured in NB medium containing 10 μg/ml kanamycin till the latter stage of the logarithmic growth phase. The grown cells were collected and washed once with 50 mM Tris-maleate buffer solution (pH 6.0) by centrifugation. The washed cells were treated with 400 μg/ml N-methyl-N'-nitro-N-nitrosoguanidine in 50 mM Tris-maleate buffer solution at room temperature for 20 minutes. The treated cells were washed twice with 50 mM Tris-maleate buffer solution by centrifugation and cultured in NB medium containing 10 μg/ml kanamycin at 30° C. for 16 hours. A plasmid DNA was isolated from the grown cells in the same manner as in (1). TA108 strain was transformed with the plasmid thus obtained in the same manner as in (3), and the kanamycin-resistant Colonies grown on RCGP agar medium containing 200 μg/ml kanamycin were scraped up, and washed twice with physiological saline solution by centrifugation. The washed cells were spread on minimal agar medium M1 containing 3 mg/ml 5FT, and cultured at 30° C. for three days. […]
(§2) AS activities of Corynebacterium glutamicum ATCC 13032 and TA108 strains carrying pCtrp1 or pCtrp57 were determined according to the method of H. Hagino, et al. [Agric. Biol. Chem., 39, 323 (1975)], and their PRT activities were determined according to the method of J. Ito and C. […]

[3] = target: T2, anthranilate phosphoribosyl transferase (PRT) of ATCC 39019 strain (Corynebacterium glutamicum, UniProt P06559); assay: PRT activity, inhibition by tryptophan, ATCC 39019 strain; details: read-out: Tryptophan concentration effective for 50% inhibition of the PRT activity
T2 construct: endogenous in cells; host or cells: C. glutamicum, strain printed as ATCC 39019 (ATCC 13032 earlier in the same paragraph)
T2 sequence (P06559 1-348): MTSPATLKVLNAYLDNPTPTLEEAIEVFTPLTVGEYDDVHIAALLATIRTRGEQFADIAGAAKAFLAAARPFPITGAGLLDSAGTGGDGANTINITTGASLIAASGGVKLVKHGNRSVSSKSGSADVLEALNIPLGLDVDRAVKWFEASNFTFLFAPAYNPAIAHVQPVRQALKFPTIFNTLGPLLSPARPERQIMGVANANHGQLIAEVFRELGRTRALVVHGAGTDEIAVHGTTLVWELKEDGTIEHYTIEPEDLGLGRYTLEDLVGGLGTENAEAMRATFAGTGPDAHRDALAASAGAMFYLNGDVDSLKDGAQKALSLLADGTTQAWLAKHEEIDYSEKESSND

[4] = target: T3, anthranilate synthase (AS) encoded by pCtrp1 (Corynebacterium glutamicum, UniProt P06557); assay: AS activity, inhibition by tryptophan, TA108 strain carrying pCtrp1; details: read-out: Tryptophan concentration effective for 50% inhibition of the AS activity
T3 construct: cell enzyme activity
T3 sequence (P06558 whole entry): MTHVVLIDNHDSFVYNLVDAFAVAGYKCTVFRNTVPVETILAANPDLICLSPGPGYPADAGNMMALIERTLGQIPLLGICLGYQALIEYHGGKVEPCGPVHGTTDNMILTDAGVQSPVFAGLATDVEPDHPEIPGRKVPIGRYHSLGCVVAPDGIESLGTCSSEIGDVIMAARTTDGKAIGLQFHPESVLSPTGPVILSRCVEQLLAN
T3 sequence (P06557 whole entry): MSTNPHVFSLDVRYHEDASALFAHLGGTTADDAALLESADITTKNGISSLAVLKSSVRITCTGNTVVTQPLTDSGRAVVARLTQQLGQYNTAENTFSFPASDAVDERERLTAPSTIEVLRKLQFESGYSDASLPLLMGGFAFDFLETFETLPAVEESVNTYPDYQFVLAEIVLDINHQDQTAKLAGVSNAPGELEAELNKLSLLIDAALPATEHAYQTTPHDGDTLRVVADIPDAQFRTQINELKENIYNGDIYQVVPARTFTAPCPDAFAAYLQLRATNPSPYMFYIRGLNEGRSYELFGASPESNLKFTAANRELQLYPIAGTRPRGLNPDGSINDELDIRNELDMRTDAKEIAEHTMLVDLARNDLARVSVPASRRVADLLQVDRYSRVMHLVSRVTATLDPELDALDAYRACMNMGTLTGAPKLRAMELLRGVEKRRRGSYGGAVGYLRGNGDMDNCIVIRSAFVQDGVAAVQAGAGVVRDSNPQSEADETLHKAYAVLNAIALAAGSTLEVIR
Procedure: (§3) AS activities of Corynebacterium glutamicum ATCC 13032 and TA108 strains carrying pCtrp1 or pCtrp57 were determined according to the method of H. Hagino, et al. [Agric. Biol. Chem., 39, 323 (1975)], and their PRT activities were determined according to the method of J. Ito and C. Yanofsky [J. Biol. Chem., 97, 734 (1969)]. AS and PRT activities of TA108 strains carrying pCtrp1 or pCtrp57 were more than 10 times as high as those of ATCC 13032 strain.

[5] = target: T4, anthranilate phosphoribosyl transferase (PRT) encoded by pCtrp1 (Corynebacterium glutamicum, UniProt P06559); assay: PRT activity, inhibition by tryptophan, TA108 strain carrying pCtrp1; details: read-out: Tryptophan concentration effective for 50% inhibition of the PRT activity
T4 construct: presence of the AS, PRT, TS-α and TS-β genes in the above 11.0 Kb DNA fragment introduced into pCtrp1; expressed in transfected cells; host or cells: C. glutamicum TA108 carrying pCtrp1
T4 sequence (P06559 1-348): T2 sequence (P06559 1-348)
Procedure: as §3

[6] = target: T5, anthranilate synthase (AS) of ATCC 39019 strain (Corynebacterium glutamicum, UniProt P06557); assay: AS activity, inhibition by tryptophan, ATCC 39019 strain; details: read-out: Tryptophan concentration effective for 50% inhibition of the AS activity
T5 construct: endogenous in cells; host or cells: C. glutamicum, strain printed as ATCC 39019 (ATCC 13032 earlier in the same paragraph)
T5 sequence (P06557 whole entry): as above
T5 sequence (P06558 whole entry partner): as the sequence (P06558 whole entry) above

[7] = target: T6, anthranilate synthase (AS) encoded by pCtrp57 (Corynebacterium glutamicum, UniProt P06557); assay: AS activity, inhibition by tryptophan, TA108 strain carrying pCtrp57; details: read-out: Tryptophan concentration effective for 50% inhibition of the AS activity
T6 construct: cell enzyme activity
T6 sequence (P06558 whole entry): as above
T6 sequence (P06557 whole entry): as the sequence (P06557 whole entry) above
Procedure: as §1, §2

| SMILES | Inhibition of DS in the transformant carrying pCGDS1 [1] | IC50 [2] | IC50 [3] | IC50 [4] | IC50 [5] | IC50 [6] | IC50 [7] |
| --- | --- | --- | --- | --- | --- | --- | --- |
| N[C@@H](Cc1ccccc1)C(=O)O [phenylalanine] | free from inhibition |  |  |  |  |  |  |
| N[C@@H](Cc1c[nH]c2ccccc12)C(=O)O [tryptophan] |  | 4.8 mM | 190 µM | 8 µM | 190 µM | 2000 nM | 4 mM |
| N[C@@H](Cc1ccc(O)cc1)C(=O)O [tyrosine] | free from inhibition |  |  |  |  |  |  |
